Source: ChEMBL document CHEMBL1140746, “Cdc7 kinase inhibitors: pyrrolopyridinones as potential antitumor agents. 1. Synthesis and structure-activity relationships” (J Med Chem, 2008)

Columns and labels:
[1] = target: Cell division cycle 7-related protein kinase (Homo sapiens, UniProt O00311)
A2780 = experiment: Antiproliferative activity against human A2780 cells after 72 hrs; format: functional, cell-based; conditions: A2780, 72 h

Cell division cycle 7-related protein kinase, sequence (O00311 whole entry): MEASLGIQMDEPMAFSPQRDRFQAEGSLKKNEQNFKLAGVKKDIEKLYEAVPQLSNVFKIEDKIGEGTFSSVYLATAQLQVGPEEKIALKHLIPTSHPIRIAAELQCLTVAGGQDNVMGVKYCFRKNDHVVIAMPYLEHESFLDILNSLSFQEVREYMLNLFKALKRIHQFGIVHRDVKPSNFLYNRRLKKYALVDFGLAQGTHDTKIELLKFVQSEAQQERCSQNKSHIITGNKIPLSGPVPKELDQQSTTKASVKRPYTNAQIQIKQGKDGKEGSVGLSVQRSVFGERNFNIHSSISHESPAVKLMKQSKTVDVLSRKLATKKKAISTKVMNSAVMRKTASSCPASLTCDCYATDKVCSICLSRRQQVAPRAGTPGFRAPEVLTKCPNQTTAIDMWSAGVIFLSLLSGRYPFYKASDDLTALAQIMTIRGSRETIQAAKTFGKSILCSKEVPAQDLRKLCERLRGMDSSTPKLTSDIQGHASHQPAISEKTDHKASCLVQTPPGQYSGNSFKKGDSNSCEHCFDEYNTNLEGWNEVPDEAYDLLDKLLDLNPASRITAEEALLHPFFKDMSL

Question: Which results are given for O=C1NCCc2[nH]c(-c3ccncn3)cc21?
Answer: IC50 [1]: 20 nM; IC50 (A2780): 5500 nM

Question: How did the IC50 [1] turn out when O=C1NCCc2c1cc(-c1ccncc1)n2CC(F)(F)F was run?
Answer: 160 nM

Question: CCn1c(-c2ccnc(N)n2)cc2c1CCNC2=O was tested. Which IC50 [1] did it give?
Answer: 8 nM

Question: With O=C1NCCc2[nH]c(-c3ccnc(NCc4ccccc4)n3)cc21 as the compound, how does the IC50 [1] read?
Answer: 220 nM

Question: CC(C)C(=O)Nc1nccc(-c2cc3c([nH]2)CCNC3=O)n1 was tested. Which IC50 [1] did it give?
Answer: 1400 nM

Question: Nc1nccc(-c2cc3c(n2CC2CC2)CCNC3=O)n1 was tested. Which IC50 [1] did it give?
Answer: 4 nM

Question: With Nc1nccc(-c2cc3c(n2CCF)CCNC3=O)n1 as the compound, how does the IC50 [1] read?
Answer: 3 nM

Question: How did the IC50 [1] turn out when CC(=O)Nc1nccc(-c2cc3c([nH]2)CCNC3=O)n1 was run?
Answer: 323 nM

Question: Which IC50 [1] does the source give for O=C1NCCn2nc(-c3ccncc3)cc21 here?
Answer: 210 nM

Question: With O=C1NCCc2oc(-c3ccncc3)cc21 as the compound, how does the IC50 [1] read?
Answer: 201 nM

Question: Which IC50 [1] does the source give for O=C1NCc2[nH]c(-c3ccncc3)cc21 here?
Answer: 27 nM

Question: What about the IC50 (A2780) of the same compound?
Answer: 4700 nM

Question: How did the IC50 [1] turn out when O=C1NCCCc2[nH]c(-c3ccncc3)cc21 was run?
Answer: 158 nM

Question: With CCn1c(-c2ccncc2)cc2c1CCNC2=O as the compound, how does the IC50 [1] read?
Answer: 67 nM

Question: O=C1NCCc2c1cc(-c1ccncc1)n2CCO was tested. Which IC50 [1] did it give?
Answer: 3300 nM

Question: How did the IC50 [1] turn out when Nc1nccc(-c2cc3c(n2CCO)CCNC3=O)n1 was run?
Answer: 138 nM

Question: How did the IC50 [1] turn out when CC(C)n1c(-c2ccnc(N)n2)cc2c1CCNC2=O was run?
Answer: 42 nM

Question: With CCCCn1c(-c2ccnc(N)n2)cc2c1CCNC2=O as the compound, how does the IC50 [1] read?
Answer: 23 nM

Question: Which IC50 [1] does the source give for Nc1nccc(-c2cc3c(n2-c2ccccc2)CCNC3=O)n1 here?
Answer: > 5000 nM

Question: Which IC50 [1] does the source give for Nc1nccc(-c2cc3c(n2Cc2ccccc2)CCNC3=O)n1 here?
Answer: 290 nM

Question: With CCCNc1nccc(-c2cc3c([nH]2)CCNC3=O)n1 as the compound, how does the IC50 [1] read?
Answer: 259 nM

Question: With CC(C)CNc1nccc(-c2cc3c([nH]2)CCNC3=O)n1 as the compound, how does the IC50 [1] read?
Answer: 636 nM

Question: For O=C1NCCc2[nH]c(-c3ccnc(NCC4CCCCC4)n3)cc21, which IC50 [1] is on record?
Answer: 655 nM

Question: For Cn1c(-c2ccncc2)cc2c1CCNC2=O, which IC50 [1] is on record?
Answer: 404 nM

Question: How did the IC50 [1] turn out when O=C1NCCc2[nH]c(-c3ccncc3F)cc21 was run?
Answer: 9 nM

Question: And the IC50 (A2780)?
Answer: 200 nM

Question: Which results are given for O=C1NCCc2[nH]c(-c3ccnc4[nH]ccc34)cc21?
Answer: IC50 [1]: 14 nM; IC50 (A2780): > 10000 nM

Question: Which results are given for Nc1ncc(Br)c(-c2cc3c([nH]2)CCNC3=O)n1?
Answer: IC50 [1]: 4 nM; IC50 (A2780): 800 nM

Question: Which IC50 [1] does the source give for Nc1nccc(-c2c[nH]c3c2C(=O)NCC3)n1 here?
Answer: > 5000 nM

Question: How did the IC50 [1] turn out when O=C1NCCc2[nH]c(-c3ncnc4[nH]cnc34)cc21 was run?
Answer: 178 nM

Question: For O=C1NCCc2[nH]c(-c3ccccc3)cc21, which IC50 [1] is on record?
Answer: > 5000 nM

Question: O=C1NCCc2[nH]ccc21 was tested. Which IC50 [1] did it give?
Answer: > 5000 nM

Question: With Nc1cc(-c2cc3c([nH]2)CCNC3=O)ccn1 as the compound, how does the IC50 [1] read?
Answer: 28 nM

Question: And the IC50 (A2780)?
Answer: > 10000 nM

Question: O=C1NCCc2[nH]c(-c3cccnc3)cc21 was tested. Which IC50 [1] did it give?
Answer: > 5000 nM

Question: How did the IC50 [1] turn out when Cc1c(-c2ccncc2)[nH]c2c1C(=O)NCC2 was run?
Answer: 45 nM

Question: With O=CN1CCc2[nH]c(-c3ccncc3)cc2C1=O as the compound, how does the IC50 [1] read?
Answer: 863 nM

Question: Which IC50 [1] does the source give for Nc1nccc(-c2cc3c(n2C2CCCCC2)CCNC3=O)n1 here?
Answer: > 5000 nM

Question: For Cn1c(-c2ccnc(N)n2)cc2c1CCNC2=O, which IC50 [1] is on record?
Answer: 88 nM

Question: Which IC50 [1] does the source give for CCCn1c(-c2ccnc(N)n2)cc2c1CCNC2=O here?
Answer: 12 nM

Question: For Nc1nccc(-c2cc3c(n2C2CCC2)CCNC3=O)n1, which IC50 [1] is on record?
Answer: 14 nM

Question: O=C1NCCc2[nH]c3c(ccc4cnccc43)c21 was tested. Which IC50 [1] did it give?
Answer: 2 nM

Question: What about the IC50 (A2780) of the same compound?
Answer: 100 nM

Question: Which IC50 [1] does the source give for CC(C)Cn1c(-c2ccnc(N)n2)cc2c1CCNC2=O here?
Answer: 13 nM

Question: For Nc1nccc(-c2cc3c(n2CCCC(F)(F)F)CCNC3=O)n1, which IC50 [1] is on record?
Answer: 47 nM

Question: Which IC50 [1] does the source give for CN1CCC(n2c(-c3ccnc(N)n3)cc3c2CCNC3=O)CC1 here?
Answer: 120 nM

Question: Which IC50 [1] does the source give for O=C(Nc1nccc(-c2cc3c([nH]2)CCNC3=O)n1)c1ccccc1 here?
Answer: 262 nM

Question: Which IC50 [1] does the source give for Nc1nccc(-c2cc3c([nH]2)CCNC3=O)n1 here?
Answer: 7 nM

Question: How did the IC50 [1] turn out when Nc1nccc(-c2cc3c(n2CC(F)(F)F)CCNC3=O)n1 was run?
Answer: 5 nM
